Experimental data: patent US9339508B2, “Use of 3-methoxy-pregnenolone for the preparation of a drug for treating a traumatic brain injury” (MAPREG, priority 2003, dated 2016)

Legend:
[1] = system: α-tubulin in rat hippocampus; assay: Microtubule dynamics in rat hippocampus (Tyr/Glu-Tub ratio, Acet-Tub); assay type: in vivo; settings: 10 mg/kg subcutaneously, single administration
Text: Mean±SEM, n=6 per group. **P<0.01, *P<0.5 vs sesame oil.
The effects produced by neurosteroids were compared with those produced by acute administration of the antidepressant drug fluoxetine (selective serotonin reuptake inhibitor SSRI).
Neurosteroids and 3-Methoxy-PREG (43B) Levels

[2] = biological target: purified tubulin and MAP2 (Homo sapiens, UniProt P11137); assay: MAP2-induced polymerization of microtubules in vitro (optical density at 345 nm); assay type: biochemical
Procedure: Purified MAP2 and tubulin are mixed in the presence of GTP at 4° C. in a spectrophotometer cuvette. Polymerization is induced by heating at 37° C. and is followed by the increase in optical density (OD) which indicates the quantity of polymers formed.
This in vitro test measures the effect of molecules on the MAP2-induced polymerization of microtubules. This polymerization occurs when MAP2 proteins and tubulin are mixed at adequate concentrations in the presence of GTP. It is accompanied by an increase in optical density measured at 345 nm for 15 to 30 minutes with a UNICON spectrophotometer thermostated at 37° C. (FIG. 1).
Activity is measured by the increase in optical density at 345 nm of a mixture of purified tubulin and MAP2, incubated at 37° C. in the presence of GTP.

[3] = biological target: T1, human progesterone receptor (PR) (Homo sapiens, UniProt P06401); assay: Test of progesterone receptor agonist activity (luciferase transactivation, HEK293T); assay type: cell-based; settings: 24 hours, increasing amounts
T1 construct: expressed in transfected cells; host or cells: HEK293T cells
T1 sequence (P06401 1-933): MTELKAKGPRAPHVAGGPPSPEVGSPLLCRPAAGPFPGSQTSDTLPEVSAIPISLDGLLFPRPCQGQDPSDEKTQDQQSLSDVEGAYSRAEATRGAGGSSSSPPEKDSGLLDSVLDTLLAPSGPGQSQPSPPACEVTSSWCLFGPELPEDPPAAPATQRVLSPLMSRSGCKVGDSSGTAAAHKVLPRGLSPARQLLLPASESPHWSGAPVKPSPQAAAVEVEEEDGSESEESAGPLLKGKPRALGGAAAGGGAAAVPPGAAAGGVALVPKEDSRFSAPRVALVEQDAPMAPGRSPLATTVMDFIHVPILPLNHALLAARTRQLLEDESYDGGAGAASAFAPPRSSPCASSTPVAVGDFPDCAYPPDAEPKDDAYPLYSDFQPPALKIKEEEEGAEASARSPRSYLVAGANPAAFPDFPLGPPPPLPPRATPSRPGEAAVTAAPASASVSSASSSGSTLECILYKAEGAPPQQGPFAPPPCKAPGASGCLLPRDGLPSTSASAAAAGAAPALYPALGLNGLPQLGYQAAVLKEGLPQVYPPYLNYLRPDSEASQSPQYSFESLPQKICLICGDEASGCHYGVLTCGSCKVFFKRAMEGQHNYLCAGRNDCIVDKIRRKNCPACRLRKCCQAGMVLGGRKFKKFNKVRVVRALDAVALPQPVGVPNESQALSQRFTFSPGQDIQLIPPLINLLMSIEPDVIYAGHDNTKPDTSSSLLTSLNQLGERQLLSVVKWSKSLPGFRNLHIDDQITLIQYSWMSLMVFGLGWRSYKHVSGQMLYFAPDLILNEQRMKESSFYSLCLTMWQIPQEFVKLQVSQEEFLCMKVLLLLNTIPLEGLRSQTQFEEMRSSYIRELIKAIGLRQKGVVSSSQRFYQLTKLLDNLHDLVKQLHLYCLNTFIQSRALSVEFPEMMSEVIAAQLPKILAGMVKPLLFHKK
Procedure: (§1) The main experimental setting used is the following: HEK293T cells were transiently transfected, using calcium phosphate precipitation technology, with expression receptors pSG5hPR (which permits expression of human progesterone receptor (PR)), pFC31-luc (contains the luciferase gene under the control of the MTV promoter, which is in turn activated by binding of a progestin to progesterone receptor) and pcbetagal (which permits expression of betagalactosidase), and cultured during 24 hours with increasing amounts of various compositions: • 1. […] Test of progesterone receptor […] activity: transfected cells were cultured with progesterone (1 nM) and increasing amounts of RU486 (a well-known progesterone receptor antagonist) or 3-methoxy-pregnenolone. • With this setting, a compound with progesterone receptor antagonist activity competes with progesterone for the occupation of progesterone receptor and results in a progressive loss of transactivation activity when the amount of this compound is increased compared to progesterone. Results

PC12 cells = assay: Neuritic growth / sprouting of PC12 cells in the presence of NGF; assay type: cell-based, rat; settings: 30 μM; for Neuritic sprouting: 3 days, NGF 10 ng/ml, relative to PREG
Procedure: Each molecule was tested in three culture wells. Measurements were taken for 200 cells per well using Scion Image software.
Neurite (neurite) length was measured for 200 cells per well after 2, 5, and 8 days of culture.
To rest the effect of selected molecules on neuritic growth, we first used the PC12 line, which has long been employed in neurobiological research. In the presence of NOF (nerve growth factor), the cells of this line, which arise from a rat pheochromocytoma, form neuritic extensions containing MAP-associated microtubules.
Stimulation of neuritic sprouting is conducted on PC12 cells differentiated in the presence of NGF (10 ng/ml) and the steroid being tested (30 μM) for 3 days. For each condition, the average length of the longest 200 neurites in each cell is measured simultaneously for 3 cultures.

[4] = system: transgenic mice expressing the longest isoform of human tau protein; assay: RotaRod motor incoordination in transgenic tau mice; assay type: in vivo, mouse; settings: subcutaneous implant releasing 0.38 mg per day for 90 days
Text: FIG. 8: Effect of molecule 43B on the motor incoordination of transgenic mice expressing the longest isoform of human tau protein in their neurons. […] The maximum speed of rotation of the RotaRod drum before the […] falls is a measurement of motor coordination (higher values correspond to a better treatment effect).
In order to evaluate the therapeutic potential of 433 to treat Alzheimer-type neurodegenerative diseases, a homozygous transgenic line of mice, such as described by Götz (EMBO J. 1995; 14(7):1304-13), can be used.
These mice express the longest human tau protein isoform. They present symptoms of neurological dysfunction expressed as muscular weakness and a reduction in motor coordination which correlate histologically with the appearance of abnormal neurites and hyperphosphorylated tau proteins as is seen in Alzheimer's disease. This pathological phosphorylation decreases the affinity of tau for microtubules and favors its aggregation.
A breeding program was undertaken at Bicêtre and genotyping made it possible to select mice homozygous for the transgene. […] The implants released 0.38 mg of steroid per day for 90 days. The progression of motor incoordination was followed by repeated RotaRod tests.

Sprague Dawley rats = assay: Forced swimming test (FST); assay type: in vivo, rat; settings: 10 mg/kg subcutaneously, 24, 5, 1 h before testing
Procedure: Drugs were administered following the traditional dosing regimen used in the FST consisting of three injections: 24, 5, 1 h before testing.
The FET is currently the most widely used animal model for assessing depression related behavior and antidepressant drug activity in rodents (Cryan et al., Neubiorev. 2005). Rats are placed in an inescapable cylinder of water where they develop an immobile posture believed to reflect a “depressive”-like state. The Lime rats spend immobile is decreased by drugs exerting antidepressant activity.
Additional behaviors can be detected in the FST; namely, climbing and swimming. It has been shown that swimming behavior is sensitive to SSRIs such as fluoxetine whereas climbing is sensitive to norepinephrine re-uptake inhibitors (NRI) such as desipramine.

PC12 cell line = assay: Cellular toxicity on the PC12 cell line; assay type: cell-based, rat; settings: concentrations as high as solubility limits
Procedure: Cellular toxicity tests are carried out routinely on the PC12 cell line.

[5] = biological target: T1, human progesterone receptor (PR); assay: Test of progesterone receptor antagonist activity (luciferase transactivation, HEK293T); assay type: cell-based; settings: with progesterone 1 nM, increasing amounts
Procedure: as §1

[6] = 40 μM, compared to solvent alone

Sequence of purified tubulin and MAP2 (P11137 whole entry): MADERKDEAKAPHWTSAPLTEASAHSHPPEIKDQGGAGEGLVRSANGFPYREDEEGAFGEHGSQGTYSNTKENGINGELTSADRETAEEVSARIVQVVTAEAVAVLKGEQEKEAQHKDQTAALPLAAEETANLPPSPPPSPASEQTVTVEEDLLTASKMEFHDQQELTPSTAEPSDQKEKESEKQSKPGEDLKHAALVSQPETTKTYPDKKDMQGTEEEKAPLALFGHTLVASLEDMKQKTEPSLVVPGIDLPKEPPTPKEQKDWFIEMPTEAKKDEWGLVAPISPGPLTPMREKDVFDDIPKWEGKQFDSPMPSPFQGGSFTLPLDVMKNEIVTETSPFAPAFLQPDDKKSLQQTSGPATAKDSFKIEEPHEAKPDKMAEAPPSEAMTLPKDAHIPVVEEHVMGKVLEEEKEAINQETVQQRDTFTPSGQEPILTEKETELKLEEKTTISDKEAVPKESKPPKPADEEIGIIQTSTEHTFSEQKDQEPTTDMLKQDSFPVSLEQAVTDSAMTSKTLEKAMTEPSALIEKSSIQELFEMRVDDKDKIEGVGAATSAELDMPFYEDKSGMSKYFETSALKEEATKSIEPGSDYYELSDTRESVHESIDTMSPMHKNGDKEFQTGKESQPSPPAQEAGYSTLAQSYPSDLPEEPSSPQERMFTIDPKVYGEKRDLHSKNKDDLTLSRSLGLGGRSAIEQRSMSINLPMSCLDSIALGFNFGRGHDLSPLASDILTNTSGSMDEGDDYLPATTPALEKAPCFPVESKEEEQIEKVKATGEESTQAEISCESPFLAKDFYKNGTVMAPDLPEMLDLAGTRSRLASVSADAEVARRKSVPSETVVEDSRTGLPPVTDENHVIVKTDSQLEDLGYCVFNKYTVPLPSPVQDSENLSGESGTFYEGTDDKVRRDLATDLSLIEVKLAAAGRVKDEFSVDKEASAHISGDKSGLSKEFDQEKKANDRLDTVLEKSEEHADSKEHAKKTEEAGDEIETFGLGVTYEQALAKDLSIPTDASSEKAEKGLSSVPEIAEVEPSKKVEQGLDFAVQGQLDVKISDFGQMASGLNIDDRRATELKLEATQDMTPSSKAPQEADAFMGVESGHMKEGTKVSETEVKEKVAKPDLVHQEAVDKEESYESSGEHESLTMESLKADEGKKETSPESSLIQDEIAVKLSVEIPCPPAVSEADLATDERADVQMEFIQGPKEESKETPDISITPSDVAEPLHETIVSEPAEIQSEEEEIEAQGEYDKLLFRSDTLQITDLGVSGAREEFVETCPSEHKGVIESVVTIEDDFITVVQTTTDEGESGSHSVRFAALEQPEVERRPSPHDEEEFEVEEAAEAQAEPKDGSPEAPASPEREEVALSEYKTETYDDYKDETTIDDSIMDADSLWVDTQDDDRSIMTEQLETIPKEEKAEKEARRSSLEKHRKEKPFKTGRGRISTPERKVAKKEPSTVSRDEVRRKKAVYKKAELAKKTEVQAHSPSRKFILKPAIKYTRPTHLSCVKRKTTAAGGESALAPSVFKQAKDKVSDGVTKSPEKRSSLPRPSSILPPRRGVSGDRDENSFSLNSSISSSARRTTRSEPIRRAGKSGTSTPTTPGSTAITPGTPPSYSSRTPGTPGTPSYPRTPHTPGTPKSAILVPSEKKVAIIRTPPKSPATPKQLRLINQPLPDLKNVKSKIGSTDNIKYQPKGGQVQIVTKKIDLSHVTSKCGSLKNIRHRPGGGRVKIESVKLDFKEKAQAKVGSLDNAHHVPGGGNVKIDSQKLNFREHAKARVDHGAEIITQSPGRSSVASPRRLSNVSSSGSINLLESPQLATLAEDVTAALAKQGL

Compound: CNCCC(Oc1ccc(C(F)(F)F)cc1)c1ccccc1 (centres unmarked) [fluoxetine]
- Acet-Tub (stable acetylated α-tubulin) [1]: tendency to increase
- Tyr/Glu-Tub ratio ([1]; 3 h): did not change

Compound: CC(=O)[C@H]1CC[C@H]2[C@@H]3CCC4=CC(=O)CC[C@]4(C)[C@H]3CC[C@]12C [progesterone, reference compound]
- microtubule polymerization [2]: do not stimulate polymerization
- progesterone receptor agonist activity (transactivation) [3]: permits a transactivation activity leading to the expression of luciferase

Compound: CC(=O)[C@H]1[C@H](C)C[C@H]2[C@@H]3CC=C4C[C@@H](O)CC[C@]4(C)[C@H]3CC[C@@]21C [PREG-16α-methyl]
- Neuritic sprouting (PC12 cells): ++ (equal to)

Compound: PREG-16α,17α-epoxy
- Neuritic sprouting (PC12 cells): + (lower than)

Compound: CO[C@H]1CC[C@@]2(C)[C@@H](CC[C@@H]3[C@@H]2CC[C@]2(C)[C@@H](C(C)=O)CC[C@@H]32)C1 [3β-methoxy-5α-pregnane-20-one]
- Neuritic sprouting (PC12 cells): +++

Compound: CC(=O)O[C@H](C)[C@H]1CC[C@H]2[C@@H]3CC=C4C[C@@H](O)CC[C@]4(C)[C@H]3CC[C@]12C [Pregna-5-ene-3β,20β-diol-20-acetate]
- Neuritic sprouting (PC12 cells): ++ (equal to)

Compound: CC(=O)[C@H]1CC[C@H]2[C@@H]3CC=C4C[C@@H](O)CC[C@]4(C)[C@H]3CC[C@]12C [PREG, pregnenolone]
- microtubule polymerization [2]: activates microtubule polymerization
- Lag time of microtubule polymerization [2, 6]: decreased
- polymerization rate and quantity of microtubules [2, 6]: clearly increase
- motor dysfunction (RotaRod) [4]: Only the 3-methoxy-PREG had a beneficial effect
- Acet-Tub (stable acetylated α-tubulin) [1]: significantly decreased
- rat climbing behavior in the FST (Sprague Dawley rats): not changed
- rat swimming in the FST (Sprague Dawley rats): significantly increased
- cellular toxicity (PC12 cell line): do not demonstrate toxicity
- increase in the average length of the neurites (PC12 cells; 3 days of culture, NGF): 60%
- Neuritic sprouting (PC12 cells): ++ (equal to)

Compound: pregnenolone sulfate
- microtubule polymerization [2]: do not stimulate polymerization

Compound: CC(=O)[C@@]12C[C@@H]1C[C@H]1[C@@H]3CC=C4C[C@@H](O)CC[C@]4(C)[C@H]3CC[C@@]12C [PREG-16α,17α-methylene]
- Neuritic sprouting (PC12 cells): + (lower than)

Compound: CC#C[C@]1(O)CC[C@H]2[C@@H]3CCC4=CC(=O)CCC4=C3[C@@H](c3ccc(N(C)C)cc3)C[C@@]21C [RU486]
- progesterone receptor antagonist activity [5]: very high antagonist activity

Compound: CO[C@H]1CC[C@@]2(C)C(=CC[C@@H]3[C@@H]2CC[C@@]2(C)[C@H]3CC[C@@]2(C(C)=O)C(Cl)Cl)C1 [3β-methoxy-pregna-5-ene-20-one-17α-dichloromethyl]
- Neuritic sprouting (PC12 cells): +++

Compound: CO[C@H]1CC[C@@]2(C)C(CCC3C2CC[C@@]2(C)C3CC[C@@H]2[C@@H](C)O)C1 (stereo partly drawn) [3β-methoxy-5α-pregnane-20β-ol]
- Neuritic sprouting (PC12 cells): ++ (equal to)
